What was measured:
NMDAR2B = experiment: Western blotting of rat brain tissue, NMDAR2B; format: in vivo; conditions: sesamin 60 mg/kg, 4 weeks, vs control
Method: (§1) The experiments were reviewed and approved by the Experimental Animal Centre of Dalian Medical University. All rats were obtained from Liaoning Changsheng Biotechnology co., Ltd. All animal experiments complied with the ARRIVE guidelines and were carried out in accordance with the National Institutes of Health guide for the care and use of laboratory animals (NIH Publications No. […], revised 1978). Wistar rats were randomly divided into the administration group (n = 5) and the control group (n = 5). The rats were provided with laboratory standard animal feed and kept under a 12-h light cycle. Sesamin (60 mg/kg) was given by intragastric administration daily for 4 weeks; the control group was given an equivalent volume of olive oil. The rats were anesthetized with pentobarbital sodium (40 mg/kg) and blood samples and brain tissue samples were collected for further assays.
(§2) The cells and tissues were harvested with lysis buffer and cleaved at 4°C for 20 min. All samples were centrifuged at 12,000 × g for 15 min at 4°C. The protein concentrations were quantified by BCA regent kits. Sodium dodecyl sulfate-polyacrylamide gel electrophoresis (SDS-PAGE) was used to separate the proteins, and they were then transferred to PVDF membranes. […] The protein bands were detected by a Tanon-5200 imaging system and the densities were analyzed by ImageJ software. […]

CYP2C9 = conditions: read-out: value of competitive inhibition of 7-position hydroxylation of S-warfarin, ref Fujii et al., 2020; cited from earlier work
[1] = molecular target: T1, recombinant human CYP46A1 (Homo sapiens, UniProt Q9Y6A2); experiment: Inhibition of CYP46A1-catalysed testosterone 16β-hydroxylation; format: biochemical; conditions: for residual activity of CYP46A1: 10 μM lignan; for residual activity of CYP46A1 / IC50: testosterone 10 μM as substrate; for α: mixed inhibition model; for Ki: testosterone 2–150 μM; for Type of inhibition: testosterone as substrate
T1 construct: purchased Cypex (Dundee, Scotland, United Kingdom)
Method: 16β-hydroxytestosterone formation catalyzed by CYP46A1 was conducted at conditions linear for the duration of incubation and protein concentration. […] After preliminary incubation at 37°C for 5 min, 10 μL NADPH (final concentration, 1 mM) was added to initiate the reaction for 10 min. The reaction was stopped by adding the same volume of acetonitrile containing 1 μM of the internal standard. The mixture was left on ice until it was centrifuged at 20,000×g for 20 min at 4°C. Aliquots of the supernatant were stored at −20°C until analysis. The possible inhibitory intensities of the sesame lignans were evaluated by quantifying the 16-OH-TST generated.
Testosterone 16β-hydroxylation reaction samples were injected into an API 3200 triple quadrupole mass spectrometer (Applied Biosystems, Concord, Ontario, Canada) and an Agilent HP1200 LC system (Agilent Technology Inc., CA, United States). The chromatographic separation was performed on a Hypersil ODS-BP column (150 mm × 2.1 mm, 5 μm; Dalian Elite Analytical Instruments Co. Ltd., China) at ambient temperature. IonSpray Voltage (IS): 4500 V; Temperature (TEM): 590°C; Ion Source Gas1 (GS1, N1): […]; Ion Source Gas2 (GS2, N2): […]; Curtain Gas (CUR): 30 psi; Collision Gas (CAD): 12 psi. MS/MS conditions for analyzed compounds are shown in Supplementary Table S1. Mobile phase A consisted of 0.1% formic acid in water; mobile phase B consisted of 0.1% formic acid in acetonitrile; the flow rate was 0.4 ml/min. The gradient elution program was 0–1 min, 95% A; 1–3 min, 95%–65% A; 3–5 min, 65%–35% A; 5–6 min, 35%–15% A; 6–8 min, 15% A; 15%–95% A, 8–8.1 min; 8.1–12 min, 95% A. 16β-hydroxytestosterone and Carbamazepine (internal standard) were monitored in the positive ion mode, and detected by fragment ions at m/z 305.2→97.2 and 237.1→194.2, respectively. LC-MS/MS data acquisition and integration were performed with Analyst 1.6.3 using the internal standard and peak-area ratios for calculation (linear regression, 1/x weighting).
The three equations and the inhibition constant were as described in our previously published methods ([Wu et al., 2017]). v=Vmax⋅S/Km⋅(1+I/Ki)+S (1) v=Vmax⋅S/(Km+S)⋅(1+I/Ki) (2) v=Vmax⋅S/Km⋅(1+I/Ki)+S⋅(1+I/α⋅Ki) (3) where v is the reaction velocity; S and I denote the substrate and inhibitor concentrations, respectively; K i represents the inhibition constant describing the affinity of the inhibitor for the enzyme; K m refers to the substrate concentration at half-maximal velocity (V max) of the reaction. The α value determines the degree of change in enzyme affinity for the substrate following the binding of the inhibitor. When α is less than 1, binding of an inhibitor […] substrate binding, and the mixed model is identical to non-competitive inhibition. When α is very large (α > 1), the binding of an inhibitor […] substrate binding, and the mixed model depicts competitive inhibition. The type of inhibition was determined by fitting the data to enzyme inhibition models. The goodness-of-fit of kinetic and inhibition models was assessed using R ^2 values and parameter S.D. estimates. Dixon and Lineweaver-Burk plots were also used to characterize the inhibition kinetics. Kinetic constants are reported as the mean ± S.D. of the parameter estimate.

HMGCR = experiment: Western blotting of rat brain tissue, HMGCR; format: in vivo; conditions: sesamin 60 mg/kg, 4 weeks, vs control
Method: as §1, §2

CYP46A1 [2] = experiment: Western blotting of CYP46A1 protein in h-CYP46A1-Neuro-2a cells; format: cell-based, human; conditions: 20 μM, 24 h
Method: MDCK-MDR1 cells and Neuro-2a-CYP46A1 cells were cultured in DMEM containing 10% (v/v) FBS, 1% nonessential amino acids, 100 U/mL penicillin G, and 100 μg/ml streptomycin, and incubated at 37°C in the presence of 5% CO2 and 95% humidity. The Neuro-2a-CYP46A1 cells were seeded into six-well plates at a density of 1 × 10^5 cells per well and cultured for 24 h. Drug intervention experiments were conducted by replacing the medium with a serum-free medium containing sesame ligands (20 μM) for 24 h.
The cells and tissues were harvested with lysis buffer and cleaved at 4°C for 20 min. All samples were centrifuged at 12,000 × g for 15 min at 4°C. The protein concentrations were quantified by BCA regent kits. Sodium dodecyl sulfate-polyacrylamide gel electrophoresis (SDS-PAGE) was used to separate the proteins, and they were then transferred to PVDF membranes. After incubation of the membranes with 5% non-fat milk for 2 h, they were then incubated with the primary antibodies at 4°C overnight. After washing three times, the membranes were incubated with the secondary antibody for 2 h. The protein bands were detected by a Tanon-5200 imaging system and the densities were analyzed by ImageJ software. The GAPDH antibody served as the internal control for sample loading.

HMGCR mRNA = experiment: Quantitative real-time PCR of rat brain, HMGCR mRNA; format: in vivo; conditions: sesamin 60 mg/kg, 4 weeks, vs control
Method: as §1, with “assays. The experimental procedure was performed as described previously ([Wen et al., 2018]). Total brain RNA and cDNA synthesis were meausured with an RNAiso Plus Reagent Kit and SYBR Premix Ex Taq Kit, respectively (Takara Biotechnology, Dalian, China). Quantitative real-time PCR was performed using SYBR Green PCR Master Mix and an ABI prim 7500 Sequence Detection System (Applied Biosystems, United States). Primers used for RT-qPCR are shown in Supplementary Table S2.” for “assays.”

CYP46A1 [3] = experiment: Western blotting of rat brain tissue, CYP46A1; format: in vivo; conditions: sesamin 60 mg/kg, 4 weeks, vs control
Method: as §1, §2

NMDAR2A = experiment: Western blotting of rat brain tissue, NMDAR2A; format: in vivo; conditions: sesamin 60 mg/kg, 4 weeks, vs control
Method: as §1, §2

[4] = test system: CYP46A1 activity (24S-hydroxycholesterol); experiment: 24S-hydroxycholesterol levels in rat plasma and brain (ELISA) after sesamin; format: in vivo; conditions: sesamin 60 mg/kg intragastric once daily, 4 weeks
Method: as §1, with “assays. The levels of 24S-hydroxycholesterol in rat plasma and brain tissues were measured by ELISA kits (Proteintech Group, Wuhan, China), according to the manufacturer’s instructions.” for “assays.”

[5] = Membrane permeability assay across MDCK-MDR1 monolayer; conditions: dog
Method: (§3) To estimate the permeability of the sesamin lignans across the blood-brain barrier (BBB), a membrane permeability assay was conducted with an MDCK-MDR1 monolayer. The transport assays were performed by seeding MDCK-MDR1 cells on a tissue culture plate insert (BIOFIL®, PC membrane, 0.33 cm^2 surface area, 0.4 μm pore size) in 24-well companion plates for 5 days. The culture medium was changed once every 2–3 days. To confirm the confluency of the cell monolayer, the trans-epithelial electrical resistance (TEER) of each well was measured before the transport assay using a resistance meter (Millipore, Millicell® ERS-2, United States). […] The cell monolayer was gently washed with Hank’s Balanced Salt Solution (HBSS) at 37°C and the transwell chamber was pre-incubated for 30 min. […] After 120 min of incubation, a 50 μL sample was removed from the receiver compartment and uniformly mixed with 50 μL methanol. Then, it was centrifuged at 20,000 ×g at 4°C for 20 min. All available samples in the receiver compartments were injected into the HPLC system for analysis. The HPLC system comprised an Agilent MSD/MS system controller, two 1,260 series pumps, a 1,200 series autosampler, a 1,200 series variable wavelength detector, and an elite ODS-BP analysis column (4.6 × 200 mm, 5 μm). The mobile phase for sesame lignans was methanol/water (80/20, v/v), and the flow rate was 0.8 ml/min with a detector wavelength of 290 nm. […] Ultraviolet detection was performed at 230 nm. The permeability (P app) and efflux ratio (ER) were calculated as follows (Eqs. 4, 5) ([Grès et al., 1998]). Papp=dQ/dt⋅1/A⋅C0 (4) In Eq. (4), A denotes the area of mass transfer, C0 represents the donor concentration of compound in the upper medium, and dQ/dt is the rate of transmembrane transportation. […] ER=Papp, B→A/Papp, A→B (5)
(§4) In Eq. (5), P app, B→A denotes the basal to apical (B-A) transport rate, and P app, A→B is the apical to basal (A-B) transport rate.

CYP46A1 mRNA = experiment: Quantitative real-time PCR of rat brain, CYP46A1 mRNA; format: in vivo; conditions: sesamin 60 mg/kg, 4 weeks, vs control
Method: as §1, with “assays. The experimental procedure was performed as described previously ([Wen et al., 2018]). Total brain RNA and cDNA synthesis were meausured with an RNAiso Plus Reagent Kit and SYBR Premix Ex Taq Kit, respectively (Takara Biotechnology, Dalian, China). Quantitative real-time PCR was performed using SYBR Green PCR Master Mix and an ABI prim 7500 Sequence Detection System (Applied Biosystems, United States). Primers used for RT-qPCR are shown in Supplementary Table S2.” for “assays.”

in vitro = conditions: dog, MDCK-MDR1
Method: as §3, §4

T1 sequence (Q9Y6A2 whole entry): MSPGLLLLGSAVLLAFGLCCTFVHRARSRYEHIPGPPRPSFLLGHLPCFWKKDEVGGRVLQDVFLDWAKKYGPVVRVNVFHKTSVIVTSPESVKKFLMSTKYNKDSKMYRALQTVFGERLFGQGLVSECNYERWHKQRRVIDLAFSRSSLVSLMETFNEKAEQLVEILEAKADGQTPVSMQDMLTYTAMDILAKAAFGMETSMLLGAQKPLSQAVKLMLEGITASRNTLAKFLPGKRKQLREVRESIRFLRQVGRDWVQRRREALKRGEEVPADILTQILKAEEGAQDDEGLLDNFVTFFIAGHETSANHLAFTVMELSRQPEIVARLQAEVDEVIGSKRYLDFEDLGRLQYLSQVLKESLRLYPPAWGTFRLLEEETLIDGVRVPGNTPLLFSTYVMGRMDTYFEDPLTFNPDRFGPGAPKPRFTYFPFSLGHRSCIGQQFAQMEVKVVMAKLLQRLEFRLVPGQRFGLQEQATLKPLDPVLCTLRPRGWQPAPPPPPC

| Type of inhibition ([1]; listed as sesamolin) | Papp at 120 min, 20 μM (in vitro) | SMILES | reduction of NMDAR2B protein expression in rat brain tissue (NMDAR2B) | Ki (CYP2C9) | residual activity of CYP46A1 [1] | α [1] | IC50 [1] | Ki [1] | Type of inhibition [1] | Type of inhibition ([1]; listed as sesamin) | reduction of HMGCR protein expression in rat brain tissue (HMGCR) | reduction of CYP46A1 protein level vs control (CYP46A1 [2]) | change of HMGCR mRNA expression in rat brain (HMGCR mRNA) | reduction of CYP46A1 protein expression in rat brain tissue (CYP46A1 [3]) | reduction of NMDAR2A protein expression in rat brain tissue (NMDAR2A) | decrease of 24S-HC level in brain [4] | plasma concentration of 24S-HC [4] | reduction of 24S-HC level in plasma [4] | Papp at 120 min, 20 μM [5] | change of CYP46A1 mRNA expression in rat brain (CYP46A1 mRNA) |
| --- | --- | --- | --- | --- | --- | --- | --- | --- | --- | --- | --- | --- | --- | --- | --- | --- | --- | --- | --- | --- |
|  |  | c1cc2c(cc1[C@H]1OC[C@H]3[C@@H]1CO[C@@H]3c1ccc3c(c1)OCO3)OCO2 [Sesamin, sesamin] | 43.5% | 13.1 µM | 36.2% | 6.491 | 6.02 µM | 6.87 ± 1.07 µM | mixed inhibition | mixed partial competitive inhibition | 31.6% | 28.1% | no significant changes | 27.3% | 22.1% | 29.3% | 45.747 ng/mL | 55.88% | 6.75 ×10⁻⁶ cm/s | no significant changes |
|  |  | Oc1ccc2c(c1)OCO2 [Sesamol, sesamol] |  |  | 59.4% |  | 21.3 ± 4.74 µM | 18.7 ± 0.72 µM | Non-competitive |  |  | 26.1% |  |  |  |  |  |  | 35.3 ×10⁻⁶ cm/s |  |
| mixed partial competitive inhibition | 20.5 ×10⁻⁶ cm/s | c1cc2c(cc1O[C@H]1OC[C@H]3[C@@H]1CO[C@@H]3c1ccc3c(c1)OCO3)OCO2 [Sesamolin, sesamolin] |  |  | 25.8% | 4.891 | 3.34 ± 0.543 µM | 4.02 ± 0.786 µM | Mixed |  |  | 57.1% |  |  |  |  |  |  |  |  |
